Experimental data from US11001591B2, “TRAF 6 inhibitors” (HELMHOLTZ ZENTRUM MUENCHEN—DEUTSCHES FORSCHUNGSZENTRUM FÜR …, priority 2016, dated 2021).
Entries after “also recorded” stand apart in the source; their conditions may differ.

Tests used:
[1] = test system: Caco-2 layer; assay: Caco-2 assay; format: in vitro ADME
Procedure: (§1) All ADME (plasma stability, plasma protein binding, microsomal stability, Log D, Caco-2 assay, CYP450 inhibition and hERG predictor assay) as well as pharmacokinetic studies (Tmax, Cmax, AUC0-240 min, Mean Residence Time, Elimination half life, Elimination rate constant, Volume of Distribution and Clearance) of C25-140 (compound 3) were conducted by Bienta Enamine Biology Services of Bienta/Enamine Ltd.

[2] = test system: ICAM-1 and A20; assay: mRNA expression of NF-κB target genes in MEF cells; format: cell-based, mouse
Procedure: (§2) For MEF cells, 1.2×10^5 cells per sample were seeded, treated with compound for 6 hours and stimulated with either IL-1β or TNFα for 60 minutes. Jurkat T-cells and primary mouse CD4^+ T-cells were seeded at 2×10^5 cells per sample, also treated with compound for 6 hours and stimulated with PMA/lonomycin for 3 hours. RNA was isolated according to the manufacturer's protocol of the Qiagen RNeasy Kit (MEF cells) or the STRATEC INVITRAP® SPIN UNIVERSAL RNA MINI KIT (Jurkat T-cells). The isolation of mRNA from […] white adipose tissue from DIO mice was performed using TRIzol® Reagent according to manufacturer's instruction. To clear the isolated RNA from genomic DNA, samples (up to 5 μg RNA) were treated with RQ1 RNase-Free DNaseI (Promega) as described in the technical manual. For the reverse transcription of RNA into cDNA, the DNaseI digested RNA samples were processed using the SuperScript III First Strand cDNA Synthesis System (Invitrogen/ThermoFisher Scientific) following the manufacturer's protocol. […] For quantification of cDNA in the samples, the LightCylcer480 (Roche) and the KAPA SYBR FAST qPCR Kit were used. For relative quantification, the ΔΔCp method first described by Pfaffl (Pfaffl, M. W., A new mathematical model for relative quantification in real-time RT-PCR. Nucleic Acids Res, 2001. 29(9): p. e45) was applied.

[3] = test system: 87 primary molecular targets; assay: SafetyScreen87 (Eurofins Cerep Panlabs); format: binding; settings: 10 μM
Procedure: The SafetyScreen87, a total of 87 assays, was carried out at Eurofins Cerep Panlabs. 87 primary molecular targets including 13 enzyme assays (kinases and non-kinase enzymes) and 74 binding assays (nuclear receptors, GPCRs, transporters and ion channels) were performed at a compound concentration of 10 μM C25-140. Each of the 87 assay reactions was performed at the optimised condition that was historically available at Eurofins Cerep Panlabs. In parallel to C25-140, a reference compound for each of the 87 reactions was concurrently tested to guarantee optimal setting of the assays. In this study the reference compounds performed in the same range as historic Ki values.

[4] = test system: NF-κB; assay: EMSA NF-κB activation in Jurkat T-cells; format: cell-based, human; settings: PMA/Ionomycin
Procedure: For compound treatment, MEF cells were seeded in 6 well plates at 1.2×10^5 cells/well the day before treatment. Jurkat T-cells were seeded directly before treatment at 2×10^5 cells/sample. Six hours after compound or DMSO treatment cells were stimulated as indicated. Thereby, MEF cells were left untreated or stimulated with recombinant mouse IL-1β (1 ng/mL) or TNFα (10 ng/mL) for 20 minutes. Jurkat T-cells were stimulated with Phorbol-12-myristat-13-acetet (PMA) (400 ng/mL) and lonomycin (600 ng/mL) for 30 minutes. Eventually, cells were lysed in high-salt lysis buffer (20 mM HEPES pH 7.9; 350 mM NaCl; 1 mM MgCl2; 0.5 mM EDTA; 0.1 mM EGTA; 20% Glycerol; 1% NP-40; 10 mM NaF; 8 mM β-Glycerophosphate; 1 mM DTT; 300 μM Sodium-vanadate; complete protease inhibitor) and analyzed in EMSA assays using H2K (NF-κB) or Oct-1 (loading control) probes.

[5] = test system: MEF, HepG2 and Jurkat cells; assay: Cell viability, CellTiter-Glo 2.0; format: cell-based
Procedure: For cell viability experiments using the CellTiter-Glo® 2.0 system (Promega), MEF cells (1.2×10^3 cells/well), HepG2 cells (4×10^3 cells/well) and Jurkat T-cells (5×10^3 cells/well) were seeded in 384 well plates. After 18 hours, cells were treated with compounds using the Sciclone G3 automation system. After 6 or 24 hours incubation, the luciferase measurement was performed according to the manufacturer's manual.

[6] = target: T1, TRAF6-Ubc13 binding (Homo sapiens, UniProt Q9Y4K3); assay: Co-immunoprecipitation of HA-TRAF6 and endogenous Ubc13 in HEK 293T cells; format: cell-based; settings: listed as C25-140
T1 construct: RING-Zincfinger1 (RZ1) domain (residues 50-159) of TRAF6 wildtype; expressed in transfected cells; host or cells: HEK 293T
T1 sequence (Q9Y4K3 50-159): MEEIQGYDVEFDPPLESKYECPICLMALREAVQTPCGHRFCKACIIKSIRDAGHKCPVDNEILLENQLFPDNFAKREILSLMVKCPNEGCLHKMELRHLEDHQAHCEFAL
Procedure: To study the interaction of TRAF6 and Ubc13 in cells, 1×10^6 293T cells were seeded and after 18 hours cells were transfected with lpg pEF-HA empty or pEF-HA-TRAF6 RZ1 plasmid using the X-tremeGENE HP DNA transfection reagent (Roche). 6 hours upon transfection, cells were treated with compound or DMSO. After 42 hours further incubation, cells were harvested in Co-IP lysis buffer and HA-TRAF6 was immunoprecipitated with anti-HA affinity matrix (Roche). Binding of Ubc13 to TRAF6 was examined in Western Blot analysis.

[7] = test system: IL-2 and TNFα; assay: mRNA expression of TCR target genes in Jurkat T-cells; format: cell-based, human; settings: PMA/Ionomycin
Procedure: as §2

[8] = Microsomal stability; format: in vitro ADME
Procedure: as §1

Caco-2 permeability [1]: good penetration
microsomal stability [8]: stable
Compound: Cc1nn(-c2ccc3nnc(C)n3n2)c(C)c1CCC(=O)N1CCC(Cc2ccccc2)CC1 [Compound 3, 1-(4-benzylpiperidin-1-yl)-3-(3,5-dimethyl-1-(3-methyl-[1,2,4]triazolo[4,3-b]pyridazin-6-yl)-1H-pyrazol-4-yl)propan-1-one]
IL-1β-induced target gene expression (ICAM-1, A20 mRNA) [2]: diminished
TNFα induced NF-κB target gene expression (ICAM-1, A20 mRNA) ([2]; TNFα): also affected
binding to SafetyScreen87 targets [3]: no significant binding
NF-κB activation [4]: attenuated
cell viability at highest dose ([5]; 100 μM, 24 hours): toxicity is noticeable
metabolic activity and cell viability ([5]; up to 50 μM, 24 hours incubation, MEF, HepG2, Jurkat): does not considerably affect
interaction of endogenous Ubc13 with ectopically expressed HA-TRAF6 [6]: reduced interaction; also recorded: most active analogs
mRNA levels of IL-2 and TNFα [7]: dose-dependently decreased
